Assay results reported in BindingDB's records for doi:10.1016/j.bmcl.2008.12.083 (Merck Research Laboratories, 2009).

What was measured:
[1] = target: Histone deacetylase 1 (Homo sapiens, UniProt Q13547); assay: HDAC Activity Assay; settings: pH 8; 37 °C
Experimental: (§1) The Fluor-de-Lys HDAC activity assay kit (Biomol) was used. Purified recombinant HDAC enzyme was incubated with Fluor-de-Lys substrate in the presence of test compounds. Fluor-de-Lys Developer was then added, and the mixture was incubated for another 10 min at room temperature. Fluorescence was measured using a fluorescent plate reader, with excitation 360 nm and emission 460 nm.

[2] = target: Histone deacetylase 3 (Homo sapiens, UniProt O15379); assay: HDAC Activity Assay; settings: 25 °C
Chain of Histone deacetylase 3 (O15379 whole entry): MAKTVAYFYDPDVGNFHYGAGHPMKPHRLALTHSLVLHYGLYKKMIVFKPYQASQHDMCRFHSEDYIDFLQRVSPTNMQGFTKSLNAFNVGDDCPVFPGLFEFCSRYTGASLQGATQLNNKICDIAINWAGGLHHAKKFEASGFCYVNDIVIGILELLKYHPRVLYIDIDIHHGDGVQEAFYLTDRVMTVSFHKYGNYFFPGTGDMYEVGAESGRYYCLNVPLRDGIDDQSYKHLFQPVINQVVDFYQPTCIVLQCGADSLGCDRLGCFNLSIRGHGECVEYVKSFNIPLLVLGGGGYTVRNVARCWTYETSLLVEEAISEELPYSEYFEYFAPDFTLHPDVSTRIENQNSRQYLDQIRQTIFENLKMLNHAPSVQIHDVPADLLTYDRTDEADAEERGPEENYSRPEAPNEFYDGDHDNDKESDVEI
Experimental: as §1

Chain of Histone deacetylase 1 (Q13547 whole entry): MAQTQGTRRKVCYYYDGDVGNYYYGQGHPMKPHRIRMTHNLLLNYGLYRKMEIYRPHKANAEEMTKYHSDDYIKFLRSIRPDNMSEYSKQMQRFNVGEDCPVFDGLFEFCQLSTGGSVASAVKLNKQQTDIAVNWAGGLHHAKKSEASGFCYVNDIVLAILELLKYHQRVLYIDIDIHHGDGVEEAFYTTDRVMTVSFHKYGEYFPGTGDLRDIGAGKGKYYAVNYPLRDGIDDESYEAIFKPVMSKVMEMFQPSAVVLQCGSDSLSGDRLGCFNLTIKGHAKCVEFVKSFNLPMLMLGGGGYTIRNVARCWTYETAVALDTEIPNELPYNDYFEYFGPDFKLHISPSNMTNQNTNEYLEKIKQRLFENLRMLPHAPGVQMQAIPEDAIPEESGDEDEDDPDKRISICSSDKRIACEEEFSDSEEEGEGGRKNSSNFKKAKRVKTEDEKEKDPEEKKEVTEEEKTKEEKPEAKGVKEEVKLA

| Structure (SMILES) | IC50 [1] | IC50 [2] |
| --- | --- | --- |
| Nc1ccc(-c2ccc(F)cc2)cc1NC(=O)c1ccc(CN2CCC3(CCCN3)CC2)cc1 [N-[2-amino-5-(4-fluorophenyl)phenyl]-4-{1,8-diazaspiro[4.5]decan-8-ylmethyl}benzamide] | 0.013 µM | 4.8 µM |
| Cc1c(CNCc2ccc(C(=O)Nc3cc(-c4ccccc4)ccc3N)cc2)cnn1C [N-(2-amino-5-phenylphenyl)-4-({[(1,5-dimethyl-1H-pyrazol-4-yl)methyl]amino}methyl)benzamide] | – | 19.3 µM |
